{"source": "patent US20040259948A1", "about": "“Reciprocal regulation of inflammation and lipid metabolism by liver X receptors” (priority 2003, published 2004)", "key": {"[1]": {"system": "Thioglycolate-elicited peritoneal macrophages", "assay": "DNA microarray analysis of LPS-activated macrophages", "type": "cell-based, mice", "conditions": "2 μM 18 h, then 100 ng/ml LPS 6 h", "procedure": "DNA microarrays were used to further examine the effect of LXR activation on LPS-induced gene transcription. […] Cells were harvested 6 hours after LPS stimulation and total RNA from these samples was used to probe Affymetrix U74Av2 arrays. The array data were analyzed using GeneSpring software to identify genes regulated by the ligand in the cells. […] Genes involved in inflammation or lipid metabolism were selected based on ligand-dependent changes in expression in the cells. […] DNA microarray analysis. […] Total RNA was reverse transcribed using a T7-(dT)24 primer (Genset Corp.). Biotin-labeled cRNA was generated using the Bioarray High Yield Transcript Labeling Kit (ENZO). Samples were hybridized to single Affymetrix Murine U74Av2 microarrays and visualized by the PAN Facility at Stanford University. Data was analyzed using GeneSpring and GeneChip Analysis Suite software (Affymetrix). Only those results determined by the software to represent significant expression differences in the presence or absence of ligand are presented. Positive results were defined as ligand-dependent changes in expression in wild-type cells."}, "[2]": {"system": "Thioglycolate-elicited murine peritoneal macrophages", "assay": "Expression of NF-κB target genes in LPS-treated macrophages (northern blot, real-time quantitative PCR)", "type": "cell-based", "procedure": "LPS is an established inducer of the NF-κB signaling pathway in macrophages. Several genes inhibited by LXR ligands in the array studies above are established targets of NF-κB. To further investigate the role of LXRs in NF-κB-dependent gene expression, we analyzed expression of NF-κB target genes in peritoneal macrophages from wild-type mice. […] Expression of NF-κB target genes was determined by northern blot (A) or by real-time quantitative PCR assays (B). 36B4 was used as a control for RNA loading and integrity. […] RNA and protein analysis. Total RNA was extracted using Trizol reagent (Life Technologies, Inc.). Northern blot analysis was carried out as described using radiolabeled cDNA probes (Tontonoz, P. et al. 1998 Cell 93:241-252). Real-time quantitative PCR (TaqMan) analysis was performed using an Applied Biosystems 7700 sequence detector. Two-step real-time PCR was performed as described (Joseph, S. B. et al. 2002 J Biol Chem 277:11019-11025). The primers and probes used are as follows: […]"}, "[3]": {"system": "human smooth muscle cells", "assay": "TNF-induced gene expression in human smooth muscle cells", "type": "cell-based", "conditions": "TNF 6 hours; real time qPCR", "procedure": "(§1) Activation of LXR by synthetic ligands inhibits inflammatory gene expression in multiple human cell types (FIG. 7A-C). TNFα plays a role in the induction of inflammatory mediators in during inflammation. Cells were treated for 6 hours with TNF as indicated and gene expression was measured by real time qPCR."}, "[4]": {"system": "human aortic endothelial cells", "assay": "TNF-induced gene expression in human aortic endothelial cells", "type": "cell-based", "conditions": "TNF 6 hours; real time qPCR", "procedure": "as §1"}, "[5]": {"system": "human peripheral blood mononuclear cells", "assay": "TNF-induced gene expression in human peripheral blood mononuclear cells", "type": "cell-based", "conditions": "TNF 6 hours; real time qPCR", "procedure": "as §1"}, "[6]": {"conditions": "pretreated 18 h, 100 ng/ml LPS 3 h and 6 h, northern blot"}, "[7]": {"conditions": "pretreated 18 h, 100 ng/ml LPS 6 h, real-time quantitative PCR"}}, "data": [{"smiles": "O=C(O)Cc1cccc(OCCCN(Cc2cccc(C(F)(F)F)c2Cl)CC(c2ccccc2)c2ccccc2)c1", "note": "[GW3965]", "values": [{"measurement": "expression of cluster of genes of macrophage innate immune response (iNOS, COX-2, IL-6, IL-1β, G-CSF, MCP-1, MCP-3, MIP-1β, IP-10, MMP-9)", "setting": "[1]", "value": "inhibited"}, {"measurement": "expression of genes involved in lipid metabolism (incl. Abca1)", "setting": "[1]", "value": "most highly induced"}, {"measurement": "expression of genes involved in other cellular processes", "setting": "[1]", "value": "not significantly altered"}, {"measurement": "Change: Apoptosis inhibitor 2", "setting": "[1]; apoptosis gene", "value": 1.10}, {"measurement": "Change: Apoptosis inhibitor 3", "setting": "[1]; apoptosis gene", "value": 0.83}, {"measurement": "Change: Apoptosis signal-regulating kinase 1", "setting": "[1]; apoptosis gene", "value": 0.99}, {"measurement": "Change: Apoptosis-inducing factor AIF (Aif)", "setting": "[1]; apoptosis gene", "value": 0.83}, {"measurement": "Change: Bc1-10 protein", "setting": "[1]; apoptosis gene", "value": 1.13}, {"measurement": "Change: Bc12-associated X protein", "setting": "[1]; apoptosis gene", "value": 1.15}, {"measurement": "Change: Bc12-like", "setting": "[1]; apoptosis gene", "value": 0.80}, {"measurement": "Change: Bc12 homologous antagonist/killer", "setting": "[1]; apoptosis gene", "value": 0.94}, {"measurement": "Change: Caspase 2", "setting": "[1]; apoptosis gene", "value": 1.10}, {"measurement": "Change: Caspase 3, apoptosis related cysteine protease", "setting": "[1]; apoptosis gene", "value": 1.40}, {"measurement": "Change: Caspase 7", "setting": "[1]; apoptosis gene", "value": 0.94}, {"measurement": "Change: Caspase 9", "setting": "[1]; apoptosis gene", "value": 0.79}, {"measurement": "Change: Caspase 11", "setting": "[1]; apoptosis gene", "value": 0.92}, {"measurement": "Change: E1B 19 K/Bc1-2-binding protein homolog (Nip3)", "setting": "[1]; apoptosis gene", "value": 1.14}, {"measurement": "Change: Avian reticuloendotheliosis viral (v-rel) oncogene related B", "setting": "[1]; cell-cycle gene", "value": 1.21}, {"measurement": "Change: Cell division cycle 42", "setting": "[1]; cell-cycle gene", "value": 1.06}, {"measurement": "Change: Cyclin 1", "setting": "[1]; cell-cycle gene", "value": 1.05}, {"measurement": "Change: Cyclin B2", "setting": "[1]; cell-cycle gene", "value": 0.68}, {"measurement": "Change: Cyclin F", "setting": "[1]; cell-cycle gene", "value": 0.72}, {"measurement": "Change: Cyclin G2", "setting": "[1]; cell-cycle gene", "value": 0.83}, {"measurement": "Change: Cyclin dependent kinase inhibitor 2B (Cdkn2b)", "setting": "[1]; cell-cycle gene", "value": 1.15}, {"measurement": "Change: Cyclin-dependent kinase 5", "setting": "[1]; cell-cycle gene", "value": 1.00}, {"measurement": "Change: Cyclin-dependent kinase inhibitor 1A (P21)", "setting": "[1]; cell-cycle gene", "value": 0.85}, {"measurement": "Change: Cyclin-dependent kinase inhibitor 1C (P57)", "setting": "[1]; cell-cycle gene", "value": 1.28}, {"measurement": "Change: Early growth response 2", "setting": "[1]; cell-cycle gene", "value": 0.96}, {"measurement": "Change: Growth arrest specific 1", "setting": "[1]; cell-cycle gene", "value": 0.91}, {"measurement": "Change: Growth arrest specific 2", "setting": "[1]; cell-cycle gene", "value": 0.92}, {"measurement": "Change: Growth arrest specific 7", "setting": "[1]; cell-cycle gene", "value": 1.22}, {"measurement": "Change: Guanine Nucleotide Regulatory Protein", "setting": "[1]; cell-cycle gene", "value": 1.12}, {"measurement": "Change: Met proto-oncogene", "setting": "[1]; cell-cycle gene", "value": 1.12}, {"measurement": "Change: Proliferating cell nuclear antigen", "setting": "[1]; cell-cycle gene", "value": 1.13}, {"measurement": "receptor-independent induction of IL-6", "setting": "[2]", "value": "modest receptor-independent induction"}, {"measurement": "receptor-independent induction of MCP-1", "setting": "[2]", "value": "modest receptor-independent induction"}, {"measurement": "iNOS mRNA expression", "setting": "[2]; LPS, FIG. 3a, receptor-dependent", "value": "inhibition"}, {"measurement": "COX-2 expression", "setting": "[2]; [6]", "value": "effective inhibitors"}, {"measurement": "lκBα expression", "setting": "[2]; [6]", "value": "effective inhibitors"}, {"measurement": "IL1-receptor antagonist (IL-1RN) expression", "setting": "[2]; [7]", "value": "effective inhibitors"}, {"measurement": "IL-1β expression", "setting": "[2]; [7]", "value": "effective inhibitors"}, {"measurement": "IL-6 expression", "setting": "[2]; [7]", "value": "effective inhibitors"}, {"measurement": "MCP-1 expression", "setting": "[2]; [7]", "value": "effective inhibitors"}, {"measurement": "TNF-induced gene expression", "setting": "[3]", "value": "inhibited"}, {"measurement": "TNF-induced gene expression", "setting": "[4]", "value": "inhibited"}, {"measurement": "TNF-induced gene expression", "setting": "[5]", "value": "inhibited"}]}]}
